Laboratory results published in the NIST ThermoML archive (doi:10.1021/je900437b).

Assay: xn = mol fraction of the nth substance listed
Settings: 101 kPa, Liquid; for speed of sound: Sing-around technique in a fixed-path interferometer; for mass density: Vibrating tube method

CN(CCO)CCO [N-methyldiethanolamine] + NCCO
Settings | mass density, 293.15 K [kg/m3] | mass density, 298.15 K [kg/m3] | mass density, 303.15 K [kg/m3] | speed of sound, 293.15 K [m/s] | speed of sound, 298.15 K [m/s] | speed of sound, 303.15 K [m/s] | speed of sound, 308.15 K [m/s]
x2 = 0 | 1042.2 | 1038.29 | 1034.36 | 1585.5 | 1570.1 | 1554.8 | 1539.5
x2 = 0.1789 | 1040.32 | 1036.35 | 1032.34 | 1603.7 | 1588.5 | 1573.4 | 1558.2
x2 = 0.3286 | 1038.49 | 1034.46 | 1030.41 | 1622.3 | 1607.1 | 1591.9 | 1576.6
x2 = 0.456 | 1036.46 | 1032.46 | 1028.38 | 1640 | 1624.7 | 1609.4 | 1594
x2 = 0.5691 | 1034.2 | 1030.16 | 1026.07 | 1656.3 | 1641 | 1625.7 | 1610.2
x2 = 0.6614 | 1031.81 | 1027.72 | 1023.61 | 1671.6 | 1656.2 | 1640.8 | 1625.2
x2 = 0.7451 | 1029.17 | 1025.1 | 1020.96 | 1686 | 1670.5 | 1655 | 1639.4
x2 = 0.8197 | 1026.39 | 1022.32 | 1018.17 | 1698.7 | 1683.1 | 1667.5 | 1651.8
x2 = 0.854 | 1025 | 1020.84 | 1016.66 | 1705.5 | 1689.8 | 1674.1 | 1658.3
x2 = 0.8865 | 1023.48 | 1019.33 | 1015.15 | 1712 | 1696.3 | 1680.6 | 1664.7
x2 = 0.9461 | 1020.22 | 1016.09 | 1011.9 | 1723.3 | 1707.3 | 1691.5 | 1675.5
x2 = 0.9738 | 1018.27 | 1014.2 | 1009.95 | 1729.4 | 1713.3 | 1697.5 | 1681.3
